Reference: patent US20240301409A1, “Chemically Modified Small Activating RNA” (RACTIGEN THERAPEUTICS, priority 2021, published 2024)

Key:
J82 cells = test: Apoptosis detection (FITC Annexin V, flow cytometry) in J82 cells with or without PBMC co-culture; format: cell-based, human
Experimental: J82 cells were transfected with RAG1-40-31 and RAG1-40-53 at final concentrations of 0.1, 1, 10 and 25 nM, and 24 hours after transfection, fresh medium was replaced and a certain ratio of PBMC cells was added (J82 cells:PBMC cells=1:4). The cells were co-cultured for 48 hours. After co-culture, cells were collected and cell apoptosis was detected by flow cytometry. FIGS. 13A-13B show the relative proliferation proportion of J82 cells after the combined treatment with chemically modified saRNA RAG1-40-31 and Mitomycin C. […] Control and DMSO are the blank transfection control and the solvent for dilution control, respectively.
J82 cells were transfected with RAG1-40-31 at 0.1, 1, 10 and 25 nM. After 24 hours of transfection, the cells were refreshed with PBMC cell-containing fresh medium. The PBMC and J82 cells were co-cultured for 48 hours, and then the supernatant was discarded and the cells were collected. 500 μL PBS was added to each well for washing and then discarded, before the addition of 100 μL trypsin/well. 900 μL medium was added to stop digestion and the content was transferred to a 1.5 mL centrifuge tube. All the cells were collected through centrifugation (400 rcf, 5 min) and counted (1˜2×10^5 cells/100 μL Binding Buffer). 100 μL of 1× Binding Buffer (B&D Systems, 51-66121E), 5 μL FITC Annexin V (B&D Systems, 51-65874X) and 5 μL PI (B&D Systems, 51-66211E) were added before incubation in dark at room temperature for 15 minutes. After the incubation, 100 μL of 1× binding buffer was added before blending and transferring to a 96-well plate for analysis with flow cytometer (Beckman Coulter). The sample should be analyzed within 1 hour.
In order to verify this hypothesis, in this example, RAG1-40-31 duplex was selected to transfect J82 cells, and after 24 hours of transfection, the cells were refreshed with fresh medium and PBMC cells at a certain ratio (J82 cells:PBMC cells=1:4) were added, or cells free of PBMC were replaced as control. After 48 hours of co-culture, FITC Annexin V kit was used to detect the apoptosis of tumor cells on a flow cytometer. […] In PBMC-free cell culture, for RAG1-40-31 treatments at 0.1, 1, 10 and 25 nM, the percentages of cells in early apoptosis were 2.3%, 2.6%, 9.4% and 15.5%, respectively, and the percentages of cells in late apoptosis were 5.3%, 5.2%, 6.7% and 9.1%, respectively. In co-culture with PBMC cells, for RAG1-40-31 treatments at 0.1, 1, 10 and 25 nM, the percentages of cells in early apoptosis were 2.0%, 4.5%, 31.5% and 49.3%, respectively, and the percentages of cells in late apoptosis were 5.6%, 7.3%, 6.3% and 5.8%, respectively.

RNase A = target: T1, RNase A (Bos taurus, UniProt P61823)
T1 sequence (P61823 27-150): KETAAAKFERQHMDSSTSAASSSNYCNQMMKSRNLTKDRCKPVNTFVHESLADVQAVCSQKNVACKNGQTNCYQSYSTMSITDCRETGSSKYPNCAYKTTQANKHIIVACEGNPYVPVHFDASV
Experimental: The duplexes obtained at each time point above were each added to 1 μL of 10× loading buffer, and then frozen in liquid nitrogen. After incubation, all samples were detected for the double-stranded RNA by 4% agarose gel electrophoresis, and the content of each duplex was analyzed by Image J software.
The duplexes obtained at each time point indicated above were each added to 1 μL of 10× loading buffer, and then frozen in liquid nitrogen. After incubation, all samples were detected for the double-stranded RNA by 4% agarose gel electrophoresis, and the content of each duplex was analyzed by Image J software.
saRNA (1.5 μL, 10 μM) was incubated at a final concentration of 0.02 mg/mL in PBS in the presence of RNase A (Amresco, OH, USA) at 37° C. for different durations. At the end of the incubation, the mixture was snap frozen in liquid nitrogen to stop nuclease activity. Samples were analyzed on a 4% agarose gel and examined for duplex degradation.
All chemically modified duplexes (Rag1-40-1 to Rag1-40-32) were incubated with 0.02 μg/L of RNase A for different durations (0 to 96 hours). At the end of the incubation, the size and amount of duplexes were detected by agarose gel electrophoresis.

[1] = co-culture with PBMC cells (1:4) 48 hours, 0.1 nM
[2] = co-culture with PBMC cells (1:4) 48 hours, 1 nM
[3] = co-culture with PBMC cells (1:4) 48 hours, 10 nM
[4] = co-culture with PBMC cells (1:4) 48 hours, 25 nM

In the case of “RAG1-40-31: saRNA duplex: sense fCfCAACUCAUUCUCCAAG*U*C (SEQ ID NO 16); antisense U*A*fCfUfUGGAGAAfUGAGfUfUGG*fC*A (SEQ ID NO 12) (sense CCAACUCAUUCUCCAAGUC; antisense UACUUGGAGAAUGAGUUGGCA; 2'-F and phosphorothioate modifications; modified_base (1)..(2) (1,2)=2′-fluoro; modified_base (17)..(19) (17,18,19)=phosphorothioate (PS) backbone modification; modified_base (2)..(21) (2,3,19,20,21)=phosphorothioate (PS) backbone modification; modified_base (3)..(20) (3,4,5,12,16,17,20)=2′-fluoro)”, the “percentage of cells in early apoptosis” value (J82 cells; PBMC-free cell culture, 0.1 nM) is reported as 2.3%, the “percentage of cells in late apoptosis” value (J82 cells; PBMC-free cell culture, 0.1 nM) is reported as 5.3% and the “percentage of cells in early apoptosis” value (J82 cells; PBMC-free cell culture, 1 nM) is reported as 2.6%. The “percentage of cells in late apoptosis” value (J82 cells; PBMC-free cell culture, 1 nM) was 5.2%, the “percentage of cells in early apoptosis” value (J82 cells; PBMC-free cell culture, 10 nM) was 9.4% and the “percentage of cells in late apoptosis” value (J82 cells; PBMC-free cell culture, 10 nM) was 6.7%. For the same substance, the “percentage of cells in early apoptosis” value (J82 cells; PBMC-free cell culture, 25 nM) was 15.5%, the “percentage of cells in late apoptosis” value (J82 cells; PBMC-free cell culture, 25 nM) was 9.1% and the “percentage of cells in early apoptosis” value (J82 cells; [1]) was 2.0%. For the same substance, the “percentage of cells in late apoptosis” value (J82 cells; [1]) was 5.6%, the “percentage of cells in early apoptosis” value (J82 cells; [2]) was 4.5% and the “percentage of cells in late apoptosis” value (J82 cells; [2]) was 7.3%. The “percentage of cells in early apoptosis” value (J82 cells; [3]) was 31.5%, the “percentage of cells in late apoptosis” value (J82 cells; [3]) was 6.3% and the “percentage of cells in early apoptosis” value (J82 cells; [4]) was 49.3%. For the same substance, the “percentage of cells in late apoptosis” value (J82 cells; [4]) was 5.8% and the “degradation of duplex at 96 hours” value (RNase A) was “little or no signs of degradation”.
